Experiments:
CS-induced ALI mice [1] = test: CS-induced lung injury model: partial pressure of oxygen (PO2); type: in vivo, Balb/c mice; settings: CT-NA 10 and 30 mg/kg intragastric; 24 hrs after last CS exposure; p<0.01
Protocol: Specific pathogen-free (SPF) female Balb/c mice (22-28 g; aged 8 weeks) were purchased from Shanghai SIPPR-BK Experimental Animal Co., Ltd. […] Model preparation: The mice were randomly divided into 5 groups (12 mice in each group), which were the control group (the mice were exposed to fresh air), the saline group (the mice were exposed to cigarette smoke), dexamethasone (Dex) group (1 mg/kg) (the mice were exposed to cigarette smoke), CT-NA 10 mg/kg group and CT-NA 30 mg/kg group (the mice were exposed to cigarette smoke). According to the grouping, the mice were intragastrically administered saline, Dex and CT-NA, respectively. Thereafter, the mice were exposed to fresh air or cigarette smoke generated from 3R4F research-grade cigarettes (containing about 600 mg TPM/m^3 and 29.9 mg nicotine/m^3) in a cuboid plastic box (65×50x×45 cm). Ten cigarettes were burned every day for seven days. After one cigarette was burned, the next cigarette was ignited. The daily body weight and general condition of the mice were checked. 24 hrs after the last exposure to the cigarette smoke, the partial pressure of oxygen (PO2) of all mice was measured by the Moor VMS-OXY™ measuring instrument, which was used to measure the oxygenated/deoxygenated hemoglobin concentration and oxygen saturation (percentage) in the microcirculation at the wavelength range of 500 to 650 nm. […]

CS-induced ALI mice [2] = test: CS-induced lung injury model: lung MPO assay; type: in vivo, Balb/c mice; settings: CS exposure; CT-NA 10 and 30 mg/kg, Dex 1 mg/kg; p<0.01
Protocol: Model preparation: The mice were randomly divided into 5 groups (12 mice in each group), which were the control group (the mice were exposed to fresh air), the saline group (the mice were exposed to cigarette smoke), dexamethasone (Dex) group (1 mg/kg) (the mice were exposed to cigarette smoke), CT-NA 10 mg/kg group and CT-NA 30 mg/kg group (the mice were exposed to cigarette smoke). According to the grouping, the mice were intragastrically administered saline, Dex and CT-NA, respectively. Thereafter, the mice were exposed to fresh air or cigarette smoke generated from 3R4F research-grade cigarettes (containing about 600 mg TPM/m^3 and 29.9 mg nicotine/m^3) in a cuboid plastic box (65×50x×45 cm). Ten cigarettes were burned every day for seven days. After one cigarette was burned, the next cigarette was ignited. […] The lung tissue was collected for determination of lung weight coefficient, histological examination and MPO activity.
In order to evaluate MPO activity, 50 mg strips of left lung tissue were washed, and then homogenized with normal saline. MPO activity was determined by measuring the changes in absorbance at 460 nm according to the detection standard by using MPO assay kit.

RAW 264.7 macrophages = test: In vitro cytokines mRNA by RT-PCR, CSE- and PGD2-stimulated macrophages; type: cell-based, mouse; settings: CT-NA 10 and 100 μM, p<0.01
Protocol: The cigarette smoke generated from 3R4F research grade cigarettes was passed through 50 ml PBS by a vacuum pump. Five cigarettes were used to make smoke that passed 50 ml PBS, and each cigarette was lit for 5 minutes. The control solution was prepared in the absence of cigarettes by using a similar method. After extraction, CSE was stored at −80° C.
RAW 264.7 macrophages were added to two 12-well plates. Thereafter, the medium of the 12-well plate was replaced with serum-free RPMI-1640 medium, and the macrophages were incubated for 10-12 hrs and then exposed to CT-NA (10 and 100 μM) for 1 hour. One hour later, one 12-well plate was treated with CSE (4%) and the other with PGD2 (10 μM) for 24 hrs. After the treatment, the supernatant of the treated cells was collected to measure the protein levels of TNF-α, IL-1β, IL-6, KC and IL-10 extracellularly secreted using ELISA kits according to the method of the instructions. Subsequently, RNA samples from each treated plate were extracted and reverse-transcripted into cDNA with HiScript5xQRTSuperMix, and then subjected to RT-PCR. RT-PCR was performed with the BioRad CFX96 Touch™ Real-Time PCR Detection System (BioRad, USA) using AceQ® qPCR SYBR Green Master Mix. And the threshold cycle numbers were obtained using BioRad CFX Manager Software. The primers used for RT-PCR reaction were shown in Table 1. β-actin was used as an internal control. The RT-PCR reactions were triplicated and the relative expression of target mRNA was normalized by the respective β-actin.

LPS-induced ALI mice [3] = test: LPS-induced ALI model: BALF cell counting; type: in vivo, Balb/c mice
Protocol: (§1) Specific pathogen-free (SPF) Balb/c mice (♂/♀; 20-26 g; 8 weeks old) were purchased from Shanghai SIPPR-BK Experimental Animal Co., Ltd. Mice were kept in an isolated ventilated cage in an environment of 40-60% humidity, 24±2° C., and 12 hrs/12 hrs dark-light cycle, and had free access to food and water. The method for preparing the LPS-induced ALI model was simply described as follows. The mice were randomly divided into a control group (12 mice) and an LPS group (48 mice). The LPS group (48 mice) was further divided into four subgroups (12 mice in each subgroup). […] 24 hrs after LPS challenge, the oxygen saturation (SO2) of all mice was measured by a Moor VMS-OXY™ instrument which measured SO2 (%) in the microcirculation at the wavelength range of 500 to 650 nm. […]
The mice were euthanized to expose the trachea, and then the right lungs were lavaged three times with 0.4 mL/time of sterile normal saline containing bovine serum albumin (BSA) and 5000 IU/L heparin to collect the BALF via tracheal tube. […] The removed lung tissues were weighted after aspirating the surface blood, and the lung weight coefficient was calculated. The lung weight coefficient was an indicator of pulmonary edema, and it was measured by dividing the individual lung weight of each mouse by its total body weight.

LPS-induced ALI mice [4] = test: LPS-induced ALI model: oxygen saturation (SO2); type: in vivo, Balb/c mice; settings: CT-NA 10 or 30 mg/kg (P<0.01, dose-dependent), Dex 1 mg/kg; 24 hrs after LPS
Protocol: as §1, with “subgroup). The unanaesthetized mice in the four subgroups of LPS were intragastrically administered with normal saline (NS), CT-NA at 10 mg/kg or 30 mg/kg, and Dex at 1 mg/kg, respectively. One hour later, the mice were anesthetized with sodium pentobarbital (intraperitoneal injection at 40 mg/kg), and then subjected to intratracheal instillation of NS to control group and LPS (4 mg/kg) to all LPS subgroups. 12 hrs later, the unanaesthetized mice of the LPS group were intragastrically administered with NS, CT-NA at 10 mg/kg or 30 mg/kg, or Dex at 1 mg/kg, respectively (FIG. 16).” for “subgroup).”

Compound: CN([C@@H]1CCc2c(CC(=O)[O-])c3cccnc3n2C1)S(=O)(=O)c1ccc(F)cc1.[Na+] [Sodium salt hydrate]
- partial pressure of oxygen (PO2) (CS-induced ALI mice [1]): significantly elevated
- MPO activity of lung tissues (CS-induced ALI mice [2]): attenuated
- mRNA levels of IL-1β, IL-6, TNF-α and KC, CSE-stimulated (RAW 264.7 macrophages; CSE (4%) 24 hrs): inhibited
- CSE-induced inhibition of IL-10, mRNA (RAW 264.7 macrophages; CSE (4%), dose-dependent): reversed
- mRNA levels of IL-1β, IL-6, TNF-α and KC, PGD2-stimulated (RAW 264.7 macrophages; PGD2 (10 μM) 24 hrs): inhibited
- PGD2-induced inhibition of IL-10, mRNA (RAW 264.7 macrophages; PGD2 (10 μM), dose-dependent): reversed
- BALF cell infiltration, performance compared with Dex (LPS-induced ALI mice [3]; CT-NA 30 mg/kg versus 1 mg/kg Dex): essentially same performance as that of 1 mg/kg Dex
- LPS-induced increase of total cells, neutrophils and macrophages in BALF (LPS-induced ALI mice [3]; CT-NA 10 and 30 mg/kg intragastric 1 h before and 12 hrs after LPS, BALF 24 hrs after LPS, P<0.01): significantly and dose-dependently attenuated
- oxygen saturation (SO2) (LPS-induced ALI mice [4]): significantly increased

Reference: US20220098197A1, “SALTS OF HETEROCYCLIC COMPOUND AND USE THEREOF” (priority 2019, published 2022)
